In patent US6737383B1, “Herbicidal oxadiazolidines” (priority 1999, dated 2004):

Columns and labels:
[1] = system: smallflower flatsedge; assay: Test B flood test smallflower flatsedge; type: in vivo, Cyperus difformis
In short: (§1)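 Each value is a visual injury score relative to controls, with 10 meaning complete control and 0 no effect. Evaluation took place twelve to sixteen days after the 2-leaf-stage plants were treated and kept in the greenhouse.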

[2] = system: wild oat; assay: Test B pre/postemergence wild oat; type: in vivo, Avena fatua; details: for Wild oats plant response rating: scale of 0 to 10 where 0 is no effect and 10 is complete control
In short: (§2)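 Test chemicals in a non-phytotoxic solvent mixture with surfactant were sprayed preemergence onto planted seeds and postemergence onto plants 2 to 18 cm tall (1- to 4-leaf stage). After twelve to sixteen days in a greenhouse, injury was visually rated against untreated controls from 0 (no effect) to 10 (complete control).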

[3] = system: rape; assay: Test B pre/postemergence rape; type: in vivo, Brassica napus; details: for Rape plant response rating: scale of 0 to 10 where 0 is no effect and 10 is complete control
In short: as §2

[4] = system: crabgrass; assay: Test B pre/postemergence crabgrass; type: in vivo, Digitaria sanguinalis; details: for Crabgrass plant response rating: scale of 0 to 10 where 0 is no effect and 10 is complete control
In short: as §2

[5] = system: cocklebur; assay: Test B pre/postemergence cocklebur; type: in vivo, Xanthium strumarium; details: for Cocklebur plant response rating: scale of 0 to 10 where 0 is no effect and 10 is complete control
In short: as §2

[6] = system: bamyardgrass; assay: Test B flood test barnyardgrass; type: in vivo, Echinochloa crus-galli
In short: as §1

[7] = system: sugar beet; assay: Test B pre/postemergence sugar beet; type: in vivo, Beta vulgaris; details: for Sugarbeets plant response rating: scale of 0 to 10 where 0 is no effect and 10 is complete control
In short: as §2

[8] = system: morningglory; assay: Test B pre/postemergence morningglory; type: in vivo, Ipomoea hederacea; details: for Morningglory plant response rating: scale of 0 to 10 where 0 is no effect and 10 is complete control
In short: as §2

[9] = system: surinam grass; assay: Test B pre/postemergence surinam grass; type: in vivo, Brachiaria decumbens
In short: as §2

[10] = system: wheat; assay: Test B pre/postemergence wheat; type: in vivo, Triticum aestivum; details: for Wheat plant response rating: scale of 0 to 10 where 0 is no effect and 10 is complete control
In short: as §2

[11] = system: rice; assay: Test B flood test rice; type: in vivo, Oryza sativa
In short: as §1

[12] = system: purple nutsedge; assay: Test B pre/postemergence purple nutsedge; type: in vivo, Cyperus rotundus; details: for Nutsedge plant response rating: scale of 0 to 10 where 0 is no effect and 10 is complete control
In short: as §2

[13] = system: pigweed; assay: Test B pre/postemergence pigweed; type: in vivo, Amaranthus retroflexus; details: for Redroot pigweed plant response rating: scale of 0 to 10 where 0 is no effect and 10 is complete control
In short: as §2

[14] = system: giant foxtail; assay: Test B pre/postemergence giant foxtail; type: in vivo, Setaria faberii; details: for Giant foxtail plant response rating: scale of 0 to 10 where 0 is no effect and 10 is complete control
In short: as §2

[15] = system: corn; assay: Test B pre/postemergence corn; type: in vivo, Zea mays; details: for Corn plant response rating: scale of 0 to 10 where 0 is no effect and 10 is complete control
In short: as §2

[16] = system: duck salad; assay: Test B flood test duck salad; type: in vivo, Heteranthera limosa
In short: as §1

[17] = Postemergence (flood test), Rate 125 g/ha, scale 0 to 10, 0 is no effect, 10 is complete control
[18] = Rate 62 g/ha, Postemergence (flood test species), scale of 0 to 10 where 0 is no effect and 10 is complete control
[19] = Postemergence, Rate 125 g/ha, scale 0 to 10, 0 is no effect, 10 is complete control
[20] = Preemergence, Rate 62 g/ha, scale 0 to 10 (0 no effect, 10 complete control)
[21] = Rate 500 g/ha, Postemergence, scale 0 to 10, 0 no effect, 10 complete control
[22] = Rate 500 g/ha, listed under Postemergence (flood test species), scale 0 to 10, 0 no effect, 10 complete control

## CC(C)N(C(=O)n1oc(=O)n(C2CCCCCC2)c1=O)c1ccc(F)cc1F [Compound 342]
[1]; [17]
  Plant response rating, S. Flatsedge: 4
[1]; [18]
  S. Flatsedge plant response rating: 0
[2]; [19]
  Plant response rating, Wild oats: 0
[2]; [20]
  Plant response rating, Wild oats: 0
[2]; Preemergence, Rate 125 g/ha
  Wild oats plant response rating (0 to 10 scale): 0
[2]; Preemergence, Rate 250 g/ha
  Wild oats plant response rating: 0
[2]; Preemergence, Rate 500 g/ha
  Wild oats plant response rating: 4
[2]; Rate 62 g/ha, Postemergence
  Wild oats plant response rating: 0
[2]; [21]
  Plant response rating, Wild oats: 0
[3]; [19]
  Plant response rating, Rape: 0
[3]; [20]
  Plant response rating, Rape: 0
[3]; Preemergence, Rate 125 g/ha
  Rape plant response rating (0 to 10 scale): 0
[3]; Preemergence, Rate 250 g/ha
  Rape plant response rating: 0
[3]; Preemergence, Rate 500 g/ha
  Rape plant response rating: 0
[3]; Rate 62 g/ha, Postemergence
  Rape plant response rating: 0
[3]; [21]
  Plant response rating, Rape: 4
[4]; [19]
  Plant response rating, Crabgrass: 0
[4]; [20]
  Plant response rating, Crabgrass: 4
[4]; Preemergence, Rate 125 g/ha
  Crabgrass plant response rating (0 to 10 scale): 6
[4]; Preemergence, Rate 250 g/ha
  Crabgrass plant response rating: 9
[4]; Preemergence, Rate 500 g/ha
  Crabgrass plant response rating: 9
[4]; Rate 62 g/ha, Postemergence
  Crabgrass plant response rating: 0
[4]; [21]
  Plant response rating, Crabgrass: 3
[5]; [19]
  Plant response rating, Cocklebur: 0
[5]; [20]
  Plant response rating, Cocklebur: 0
[5]; Preemergence, Rate 125 g/ha
  Cocklebur plant response rating (0 to 10 scale): 0
[5]; Preemergence, Rate 500 g/ha
  Cocklebur plant response rating: 0
[5]; Rate 62 g/ha, Postemergence
  Cocklebur plant response rating: 0
[5]; [21]
  Plant response rating, Cocklebur: 0
[6]; [17]
  Plant response rating, Barnyardgrass: 2
[6]; [18]
  Barnyardgrass plant response rating: 0
[6]; Rate 250 g/ha, Postemergence (flood test species), scale of 0 to 10 where 0 is no effect and 10 is complete control
  Plant response rating, Barnyardgrass: 9
[6]; [22]
  Plant response rating, Barnyardgrass: 9
[7]; [19]
  Plant response rating, Sugarbeets: 0
[7]; [20]
  Plant response rating, Sugarbeets: 0
[7]; Preemergence, Rate 125 g/ha
  Sugarbeets plant response rating (0 to 10 scale): 0
[7]; Preemergence, Rate 250 g/ha
  Sugarbeets plant response rating: 0
[7]; Preemergence, Rate 500 g/ha
  Sugarbeets plant response rating: 0
[7]; Rate 62 g/ha, Postemergence
  Sugarbeets plant response rating: 0
[7]; [21]
  Plant response rating, Sugarbeets: 0
[8]; [19]
  Plant response rating, Morningglory: 7
[8]; [20]
  Plant response rating, Morningglory: 0
[8]; Preemergence, Rate 125 g/ha
  Morningglory plant response rating (0 to 10 scale): 0
[8]; Preemergence, Rate 250 g/ha
  Morningglory plant response rating: 0
[8]; Preemergence, Rate 500 g/ha
  Morningglory plant response rating: 0
[8]; Rate 62 g/ha, Postemergence
  Morningglory plant response rating: 7
[8]; [21]
  Plant response rating, Morningglory: 9
[9]; [19]
  Plant response rating, B. signalgrass: 0
[9]; [20]
  Plant response rating, B. signalgrass: 0
[9]; Preemergence, Rate 125 g/ha
  B. signalgrass plant response rating (0 to 10 scale, 0 is no effect, 10 is complete control): 0
[9]; Preemergence, Rate 250 g/ha, scale of 0 to 10 where 0 is no effect and 10 is complete control
  B. signalgrass plant response rating: 2
[9]; Preemergence, Rate 500 g/ha, scale of 0 to 10 where 0 is no effect and 10 is complete control
  B. signalgrass plant response rating: 6
[9]; Rate 62 g/ha, Postemergence, scale of 0 to 10 where 0 is no effect and 10 is complete control
  B. signalgrass plant response rating: 0
[9]; Rate 250 g/ha, Postemergence, scale of 0 to 10 where 0 is no effect and 10 is complete control
  Plant response rating, B. signalgrass: 0
[9]; [21]
  Plant response rating, B. signalgrass: 1
[10]; [19]
  Plant response rating, Wheat: 0
[10]; [20]
  Plant response rating, Wheat: 0
[10]; Preemergence, Rate 125 g/ha
  Wheat plant response rating (0 to 10 scale): 0
[10]; Preemergence, Rate 250 g/ha
  Wheat plant response rating: 0
[10]; Preemergence, Rate 500 g/ha
  Wheat plant response rating: 3
[10]; Rate 62 g/ha, Postemergence
  Wheat plant response rating: 0
[10]; [21]
  Plant response rating, Wheat: 0
[11]; [17]
  Plant response rating, Rice: 0
[11]; [18]
  Rice plant response rating: 0
[11]; [22]
  Plant response rating, Rice: 0
[12]; [19]
  Plant response rating, Nutsedge: 0
[12]; [20]
  Plant response rating, Nutsedge: 0
[12]; Preemergence, Rate 125 g/ha
  Nutsedge plant response rating (0 to 10 scale): 0
[12]; Preemergence, Rate 250 g/ha
  Nutsedge plant response rating: 0
[12]; Preemergence, Rate 500 g/ha
  Nutsedge plant response rating: 0
[12]; Rate 62 g/ha, Postemergence
  Nutsedge plant response rating: 0
[12]; [21]
  Plant response rating, Nutsedge: 0
[13]; [19]
  Plant response rating, Redroot pigweed: 2
[13]; [20]
  Plant response rating, Redroot pigweed: 0
[13]; Preemergence, Rate 125 g/ha
  Redroot pigweed plant response rating (0 to 10 scale): 0
[13]; Preemergence, Rate 250 g/ha
  Redroot pigweed plant response rating: 0
[13]; Preemergence, Rate 500 g/ha
  Redroot pigweed plant response rating: 0
[13]; Rate 62 g/ha, Postemergence
  Redroot pigweed plant response rating: 2
[13]; [21]
  Plant response rating, Redroot pigweed: 8
[14]; [19]
  Plant response rating, Giant foxtail: 0
[14]; [20]
  Plant response rating, Giant foxtail: 8
[14]; Preemergence, Rate 125 g/ha
  Giant foxtail plant response rating (0 to 10 scale): 9
[14]; Preemergence, Rate 250 g/ha
  Giant foxtail plant response rating: 10
[14]; Preemergence, Rate 500 g/ha
  Giant foxtail plant response rating: 10
[14]; Rate 62 g/ha, Postemergence
  Giant foxtail plant response rating: 0
[14]; [21]
  Plant response rating, Giant foxtail: 7
[15]; [19]
  Plant response rating, Corn: 0
[15]; [20]
  Plant response rating, Corn: 0
[15]; Preemergence, Rate 125 g/ha
  Corn plant response rating (0 to 10 scale): 0
[15]; Preemergence, Rate 250 g/ha
  Corn plant response rating: 0
[15]; Preemergence, Rate 500 g/ha
  Corn plant response rating: 0
[15]; Rate 62 g/ha, Postemergence
  Corn plant response rating: 0
[15]; [21]
  Plant response rating, Corn: 0
[16]; [17]
  Plant response rating, Ducksalad: 0
[16]; [18]
  Ducksalad plant response rating: 0
[16]; [22]
  Plant response rating, Ducksalad: 4
